Source: patent publication US9969758B2, “Antimicrobial compounds” (BIOMERIEUX, priority 2014, dated 2018)
≈ marks a conversion by molar mass, not a printed value.

Columns and labels:
E. faecium (34) = experiment: MIC by agar dilution; format: cell-based, Enterococcus faecium
Description: (§1) A collection of 50 isolates of Staphylococci aureus included 36 strains of methicillin-resistant S. aureus (MRSA) frequently encountered in Europe, including strains isolated in Belgium, Finland, France, Germany and the United Kingdom. Another strain of MRSA, NCTC 11939, was included as a control, as well as a methicillin-sensitive control (NCTC 6571). Twelve other isolates of methicillin-sensitive Staphylococcus aureus (MSSA) recently collected from blood cultures were also included. Finally, 50 isolates of enterococci included two control strains (Enterococcus faecalis NCTC 755 and Enterococcus faecium NCTC 7171) and 48 isolates originating from clinical samples obtained from at least three different hospitals. The clinical isolates included E. faecalis (n=10), E. faecium (n=33), Enterococcus casseliflavus (n=3), Enterococcus gallinarum (n=2).
(§2) Determining the minimum inhibitory concentrations (MIC). All the MICs were determined using an agar dilution method. This required use of a medium without a defined antagonist (peptone-free), prepared as described previously with the inclusion of 2% horse blood lysed with saponin, 25.0 μg/mL of NAD and 25.0 μg/mL of hemin [17]. The compounds tested were dissolved in sterile deionised water and incorporated into the agar medium in a concentration range of 0.0031 to 8.0 μg/mL (0.016 to 32 μg/mL for gram-positive bacteria). All the isolates were prepared at a density equivalent to 0.5 McFarland units in sterile deionised water using a densitometer (approximately 1.5×10^8 CFU/mL), and then diluted to 1 for 15. An aliquot of 1 μL of each diluted suspension was then placed onto plates with a multispot inoculator to give the final recommended inoculation of 10 000 CFU/spot. The MICs of fosfomycin were determined by the same method, except that the IsoSensitest medium (Oxoid, Basingstoke, United Kingdom) was used, plus 25.0 μg/mL of glucose-6-phosphate (Sigma, Poole, United Kingdom) and an extended range of fosfomycin concentrations. All the dishes (including the antimicrobial-free controls) were incubated for 22 hours at 37° C. All the tests were performed on at least two independent replicates in order to examine the reproducibility.

[1] = test system: methicillin-sensitive Staphylococcus aureus; experiment: MIC by agar dilution; format: cell-based
Description: as §1, §2

[2] = test system: glycopeptide-resistant enterococci; experiment: MIC by agar dilution; format: cell-based
Description: as §1, §2

All Enterococci (50) = experiment: MIC by agar dilution; format: cell-based
Description: as §1, §2

[3] = test system: methicillin-resistant Staphylococcus aureus; experiment: MIC by agar dilution; format: cell-based
Description: as §1, §2

Escherichia coli = experiment: Growth and colour on Salmonella detection medium; format: cell-based; conditions: added to the chromID Salmonella medium (0.002 g/L)
Description: The present Example 3 aims to compare the detection specificity of a reaction medium according to the invention, intended to detect bacteria of the genus Salmonella, namely the medium “modified chromlD Salmonella” against a reference detection medium for the same bacteria, namely the medium “chromlD Salmonella”.
The respective compositions of the reaction medium according to the present invention and of the reference reaction medium are presented below, within Table 2.

E. aerogenes (n=1) = experiment: MIC by agar dilution; format: cell-based, Enterobacter aerogenes
Description: (§3) Bacterial isolates. […] These included Citrobacter freundii (n=5), other species of Citrobacter (n=4), Enterobacter aerogenes (n=1), Enterobacter cloacae (n=27), Escherichia coli (n=53), Klebsiella oxytoca (n=5), Klebsiella pneumoniae (n=87), Kluyvera spp (n=1), Proteus mirabilis (n=8), Providencia rettgeri (n=2), Salmonella spp (n=3), and Serratia marcescens (n=1). Among these 197 isolates, there were 128 (65%) carbapenemase producers, including; 87 with NDM-1, 9 with IMP, 11 with KPC, 14 with OXA-48 and 7 with VIM. The majority of the carbapenemase producers jointly produced broad-spectrum β-lactamases (BSBL) or cephalosporinases (AmpC β-lactamases), but the latter are not documented for the sake of clarity.
(§4) Determining the minimum inhibitory concentrations (MIC). All the MICs were determined using an agar dilution method. This required use of a medium without a defined antagonist (peptone-free), prepared as described previously with the inclusion of 2% horse blood lysed with saponin, 25.0 μg/mL of NAD and 25.0 μg/mL of hemin [17]. […] The MICs of fosfomycin were determined by the same method, except that the IsoSensitest medium (Oxoid, Basingstoke, United Kingdom) was used, plus 25.0 μg/mL of glucose-6-phosphate (Sigma, Poole, United Kingdom) and an extended range of fosfomycin concentrations. […]

AmpC (22) = experiment: MIC by agar dilution; format: cell-based, Enterobacteriaceae
Description: as §3, §2

K. oxytoca = experiment: MIC by agar dilution; format: cell-based, Klebsiella oxytoca; conditions: five isolates of K. oxytoca
Description: as §3, §4

All S. aureus (50) = experiment: MIC by agar dilution; format: cell-based, Staphylococcus aureus
Description: as §1, §2

Salmonella isolates = experiment: MIC by agar dilution; format: cell-based, Salmonella spp; conditions: Salmonella, read-out: MICs
Description: as §3, §4

E. cloacae (27) = experiment: MIC by agar dilution; format: cell-based, Enterobacter cloacae
Description: as §3, §2

Kluyvera sp. (n=1) = experiment: MIC by agar dilution; format: cell-based, Kluyvera spp
Description: as §3, §4

S. marcescens (n=1) = experiment: MIC by agar dilution; format: cell-based, Serratia marcescens
Description: as §3, §4

E. faecalis (11) = experiment: MIC by agar dilution; format: cell-based, Enterococcus faecalis; conditions: Enterococcus faecalis
Description: as §1, §2

K. pneumoniae (87) = experiment: MIC by agar dilution; format: cell-based, Klebsiella pneumoniae; conditions: Klebsiella pneumoniae
Description: as §3, §2

E. coli (53) = experiment: MIC by agar dilution; format: cell-based, Escherichia coli
Description: as §3, §2

Enterobacteriaceae (197) = experiment: MIC by agar dilution; format: cell-based
Description: as §3, §2

[4] = test system: carbapenemase-producing Enterobacteriaceae; experiment: MIC by agar dilution; format: cell-based
Description: as §3, §2

[5] = test system: Enterobacteriaceae with a broad-spectrum β-lactamase; experiment: MIC by agar dilution; format: cell-based
Description: as §3, §2

Citrobacter (n=9) = experiment: MIC by agar dilution; format: cell-based
Description: as §3, §2

[6] = read-out: Modal MIC (most frequent MIC)

With `C[C@H](NC(=O)[C@@H](N)CCl)P(=O)(O)O` [β-Cl-Alafosfalin, β-chloro-L-alanyl-L-1-aminoethylphosphonic acid] the “MIC Range” value (E. faecium (34); E. faecium (34)) was 2 to 32 µg/mL, the MIC50 (E. faecium (34); Enterococcus faecium) was 4 µg/mL (≈ 17.3 µM) and the MIC90 (E. faecium (34); Enterococcus faecium) was 8 µg/mL (≈ 34.7 µM). The MIC (E. faecium (34); Enterococcus faecium, read-out: Modal MIC (most frequent MIC)) was 4 µg/mL (≈ 17.3 µM), the “MIC Range” value ([1]; MSSA (13)) was 0.5 to 4 µg/mL and the MIC50 ([1]; Staphylococcus aureus, MSSA) was 1 µg/mL (≈ 4.34 µM). It also gave an MIC90 ([1]; Staphylococcus aureus, MSSA) of 2 µg/mL (≈ 8.67 µM), an MIC ([1]; Staphylococcus aureus, MSSA, read-out: Modal MIC (most frequent MIC)) of 1 µg/mL (≈ 4.34 µM) and an MIC50 [2] of 8 µg/mL (≈ 34.7 µM). The MIC90 [2] was 16 µg/mL (≈ 69.4 µM), the MIC [2, 6] was 4 µg/mL (≈ 17.3 µM) and the MIC50 (All Enterococci (50)) was 8 µg/mL (≈ 34.7 µM). For the same compound, the MIC90 (All Enterococci (50)) was 16 µg/mL (≈ 69.4 µM), the MIC (All Enterococci (50); [6]) was 8 µg/mL (≈ 34.7 µM) and the “MIC Range” value ([3]; MRSA (37)) was 0.125 to 2 µg/mL. For the same compound, the “concentration by which all the isolates were inhibited” value ([3]; MRSA isolates) was 2.0 µg/mL, the MIC50 ([3]; Staphylococcus aureus, MRSA) was 2 µg/mL (≈ 8.67 µM) and the MIC90 ([3]; Staphylococcus aureus, MRSA) was 2 µg/mL (≈ 8.67 µM). For the same compound, the MIC ([3]; Staphylococcus aureus, MRSA, read-out: Modal MIC (most frequent MIC)) was 2 µg/mL (≈ 8.67 µM), the “effect on the osidase activities of the strains of Escherichia coli” value (Escherichia coli) was “selectively inhibit” and the “concentration to which all the isolates were sensitive” value (E. aerogenes (n=1)) was ≤ 2 µg/mL. For the same compound, the MIC50 (AmpC (22)) was 2 µg/mL (≈ 8.67 µM), the MIC90 (AmpC (22)) was > 8 µg/mL and the MIC (AmpC (22); [6]) was > 8 µg/mL. For the same compound, the “concentration by which all isolates were inhibited” value (K. oxytoca) was ≤ 2 µg/mL, the “MIC Range” value (All S. aureus (50); All S. aureus (50)) was 0.125 to 4 µg/mL and the MIC50 (All S. aureus (50); Staphylococcus aureus) was 1 µg/mL (≈ 4.34 µM). The MIC90 (All S. aureus (50); Staphylococcus aureus) was 2 µg/mL (≈ 8.67 µM), the MIC (All S. aureus (50); Staphylococcus aureus, read-out: Modal MIC (most frequent MIC)) was 2 µg/mL (≈ 8.67 µM) and the MIC (Salmonella isolates) was 2 to 4 µg/mL (≈ 8.67 to 17.3 µM). For the same compound, the “MIC Range” value (E. cloacae (27); E. cloacae (27)) was 0.063 to 1 µg/mL, the “concentration by which all the isolates were inhibited” value (E. cloacae (27); E. cloacae isolates (n=27)) was 1 µg/mL and the MIC50 (E. cloacae (27); Enterobacter cloacae) was 0.5 µg/mL (≈ 2.17 µM). The MIC90 (E. cloacae (27); Enterobacter cloacae) was 0.5 µg/mL (≈ 2.17 µM), the MIC (E. cloacae (27); Enterobacter cloacae, read-out: Modal MIC (most frequent MIC)) was 0.5 µg/mL (≈ 2.17 µM) and the “concentration to which all the isolates were sensitive” value (Kluyvera sp. (n=1)) was ≤ 2 µg/mL. The “concentration to which all the isolates were sensitive” value (S. marcescens (n=1)) was ≤ 2 µg/mL, the MIC50 (E. faecalis (11)) was 8 µg/mL (≈ 34.7 µM) and the MIC90 (E. faecalis (11)) was 16 µg/mL (≈ 69.4 µM). It also gave an MIC (E. faecalis (11); [6]) of 8 µg/mL (≈ 34.7 µM), an MIC50 (K. pneumoniae (87)) of 1 µg/mL (≈ 4.34 µM) and an MIC90 (K. pneumoniae (87)) of 8 µg/mL (≈ 34.7 µM). For the same compound, the MIC (K. pneumoniae (87); [6]) was 1 µg/mL (≈ 4.34 µM), the percent of isolates inhibited at 8 µg/mL (K. pneumoniae (87); read-out: isolates inhibited) was 93% and the “concentration by which growth of all the isolates was inhibited” value (E. coli (53); 53 isolates of E. coli) was 0.5 µg/mL. The “activity relative to that of alafosfalin” value (E. coli (53); E. coli) was “at least twice”, the “activity relative to that of fosfomycin” value (E. coli (53); E. coli) was “at least eight” and the “MIC Range” value (E. coli (53); E. coli (53)) was ≤0.031-0.5 ^ μg/mL. The MIC50 (E. coli (53); Escherichia coli) was 0.063 µg/mL (≈ 0.273 µM), the MIC90 (E. coli (53); Escherichia coli) was 0.125 µg/mL (≈ 0.542 µM) and the MIC (E. coli (53); Escherichia coli, read-out: Modal MIC (most frequent MIC)) was 0.063 µg/mL (≈ 0.273 µM). For the same compound, the MIC50 (Enterobacteriaceae (197)) was 0.5 µg/mL (≈ 2.17 µM), the MIC90 (Enterobacteriaceae (197)) was 8 µg/mL (≈ 34.7 µM) and the MIC (Enterobacteriaceae (197); [6]) was 1 µg/mL (≈ 4.34 µM). The MIC50 [4] was 0.5 µg/mL (≈ 2.17 µM), the MIC90 [4] was 2 µg/mL (≈ 8.67 µM) and the MIC [4, 6] was 1 µg/mL (≈ 4.34 µM). For the same compound, the MIC50 [5] was 0.5 µg/mL (≈ 2.17 µM), the MIC90 [5] was > 8 µg/mL and the MIC [5, 6] was 0.063 µg/mL (≈ 0.273 µM). For the same compound, the “concentration to which all the isolates were sensitive” value (Citrobacter (n=9)) was ≤ 2 µg/mL.
